Laboratory results taken from patent US11117900B2 (Vertex Pharmaceuticals Incorporated, priority 2012, dated 2021).
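Note: compound concentration needed to lower the IC50 of Cisplatin alone by a set fold.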

These compounds were tested on HCT116 colorectal cancer cells (assay: Cisplatin sensitization assay (96 h MTS cell viability)). Conditions: Cisplatin sensitization value.
Assay type: cell-based
Outline: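 HCT116 cells were dosed simultaneously with compound and cisplatin as a full matrix of 2-fold serial dilutions from 10 μM top final concentration. Incubation was 96 h at 37° C., 5% CO2, followed by 1 h with MTS reagent for the viability read-out. Sensitization values were binned into +++, ++ and + categories.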
For `Nc1nn2cc(F)cnc2c1C(=O)Nc1cncc(F)c1N1CCN2C(=O)OC[C@@H]2C1` [I-N-248, (S)-2-amino-6-fluoro-N-(5-fluoro-4-(3-oxotetrahydro-1H-oxazolo[3,4-a]pyrazin-7(3H)-yl)pyridin-3-yl)pyrazolo[1,5-a]pyrimidine-3-carboxamide], the “Cisplatin Sensitization Assay” value was “++ (Compounds with a Cisplatin sensitization value >0.02 μM but <0.2 μM are marked with “++.”)”.
For `Nc1nn2cc(F)cnc2c1C(=O)Nc1cncc(F)c1N1CCC(C(=O)N2CCN3CCC2CC3)CC1` [I-G-7, N-(4-(4-(1,4-diazabicyclo[3.2.2]nonane-4-carbonyl)piperidin-1-yl)-5-fluoropyridin-3-yl)-2-amino-6-fluoropyrazolo[1,5-a]pyrimidine-3-carboxamide], the “Cisplatin Sensitization Assay” value was “+++ (Compounds with a Cisplatin sensitization value of <0.02 μM are marked with “+++.”)”.
For `Nc1nn2cc(F)cnc2c1C(=O)Nc1cncc(Cl)c1N1CCC(C(=O)N2CCNCC2)CC1` [I-G-48, 2-amino-N-(5-chloro-4-(4-(piperazine-1-carbonyl)piperidin-1-yl)pyridin-3-yl)-6-fluoropyrazolo[1,5-a]pyrimidine-3-carboxamide], the “Cisplatin Sensitization Assay” value was “+++ (Compounds with a Cisplatin sensitization value of <0.02 μM are marked with “+++.”)”.
With `Nc1nn2cc(F)cnc2c1C(=O)Nc1cncc(F)c1N1CCS(=O)(=O)CC1` [I-N-250, 2-amino-N-(4-(1,1-dioxidothiomorpholino)-5-fluoropyridin-3-yl)-6-fluoropyrazolo[1,5-a]pyrimidine-3-carboxamide] the “Cisplatin Sensitization Assay” value was “++ (Compounds with a Cisplatin sensitization value >0.02 μM but <0.2 μM are marked with “++.”)”.
In the case of `Cc1nccnc1-c1ccncc1NC(=O)c1c(N)nn2cc(F)cnc12` [I-C-62, 2-amino-6-fluoro-N-(4-(3-methylpyrazin-2-yl)pyridin-3-yl)pyrazolo[1,5-a]pyrimidine-3-carboxamide], the “Cisplatin Sensitization Assay” value is reported as “++ (Compounds with a Cisplatin sensitization value >0.02 μM but <0.2 μM are marked with “++.”)”.
In the case of `Nc1nn2cc(F)cnc2c1C(=O)Nc1cnccc1N1CCN2C(=O)COCC2C1` (stereo not drawn) [I-N-136, 2-amino-6-fluoro-N-(4-(4-oxohexahydropyrazino[2,1-c][1,4]oxazin-8(1H)-yl)pyridin-3-yl)pyrazolo[1,5-a]pyrimidine-3-carboxamide], the “Cisplatin Sensitization Assay” value is reported as “++ (Compounds with a Cisplatin sensitization value >0.02 μM but <0.2 μM are marked with “++.”)”.
With `Nc1nn2cc(Cl)cnc2c1C(=O)Nc1cnccc1OCCO` [I-O-66, 2-amino-6-chloro-N-(4-(2-hydroxyethoxy)pyridin-3-yl)pyrazolo[1,5-a]pyrimidine-3-carboxamide] the “Cisplatin Sensitization Assay” value was “+ (Compounds with a Cisplatin sensitization value >0.2 μM but <5 μM are marked with “+.”)”.
For `Nc1nn2cc(F)cnc2c1C(=O)Nc1cncc(F)c1N1CCC(C(=O)N2CC(F)C2)CC1` [I-G-74, 2-amino-6-fluoro-N-(5-fluoro-4-(4-(3-fluoroazetidine-1-carbonyl)piperidin-1-yl)pyridin-3-yl)pyrazolo[1,5-a]pyrimidine-3-carboxamide], the “Cisplatin Sensitization Assay” value was “+++ (Compounds with a Cisplatin sensitization value of <0.02 μM are marked with “+++.”)”.
For `CN1CCN(c2cc(N)ncc2NC(=O)c2c(N)nn3cc(Cl)cnc23)CC1` [I-N-50, 2-amino-N-(6-amino-4-(4-methylpiperazin-1-yl)pyridin-3-yl)-6-chloropyrazolo[1,5-a]pyrimidine-3-carboxamide], the “Cisplatin Sensitization Assay” value was “+ (Compounds with a Cisplatin sensitization value >0.2 μM but <5 μM are marked with “+.”)”.
For `Nc1nn2cc(F)cnc2c1C(=O)Nc1cnccc1OC1CN2CCC1CC2` (racemic) [I-O-6, (R,S)-2-amino-6-fluoro-N-(4-(quinuclidin-3-yloxy)pyridin-3-yl)pyrazolo[1,5-a]pyrimidine-3-carboxamide], the “Cisplatin Sensitization Assay” value was “+++ (Compounds with a Cisplatin sensitization value of <0.02 μM are marked with “+++.”)”.
`CN1CCN(c2ccncc2NC(=O)c2c(N)nn3cc(CC#N)cnc23)CC1` [I-N-82, 2-amino-6-(cyanomethyl)-N-(4-(4-methylpiperazin-1-yl)pyridin-3-yl)pyrazolo[1,5-a]pyrimidine-3-carboxamide] was tested, and the “Cisplatin Sensitization Assay” value was “++ (Compounds with a Cisplatin sensitization value >0.02 μM but <0.2 μM are marked with “++.”)”.
`Nc1nn2cc(F)cnc2c1C(=O)Nc1cnccc1-c1ccc(C(=O)N2CCN(C3COC3)CC2)cc1` [I-C-49, 2-amino-6-fluoro-N-(4-(4-(4-(oxetan-3-yl)piperazine-1-carbonyl)phenyl)pyridin-3-yl)pyrazolo[1,5-a]pyrimidine-3-carboxamide] was tested, and the “Cisplatin Sensitization Assay” value was “+++ (Compounds with a Cisplatin sensitization value of <0.02 μM are marked with “+++.”)”.
With `Nc1nn2cc(F)cnc2c1C(=O)Nc1cnccc1-c1cccnc1Cl` [I-C-37, 2-amino-N-(2-chloro-[3,4′-bipyridin]-3′-yl)-6-fluoropyrazolo[1,5-a]pyrimidine-3-carboxamide] the “Cisplatin Sensitization Assay” value was “+++ (Compounds with a Cisplatin sensitization value of <0.02 μM are marked with “+++.”)”.
For `COCCN1CCN(c2ccncc2NC(=O)c2c(N)nn3cc(Cl)cnc23)CC1` [I-N-60, 2-amino-6-chloro-N-(4-(4-(2-methoxyethyl)piperazin-1-yl)pyridin-3-yl)pyrazolo[1,5-a]pyrimidine-3-carboxamide], the “Cisplatin Sensitization Assay” value was “+++ (Compounds with a Cisplatin sensitization value of <0.02 μM are marked with “+++.”)”.
`Nc1nn2cc(F)cnc2c1C(=O)Nc1cncc(F)c1N1CCN(CC(=O)N2CCC2)CC1` [I-N-228, 2-amino-N-(4-(4-(2-(azetidin-1-yl)-2-oxoethyl)piperazin-1-yl)-5-fluoropyridin-3-yl)-6-fluoropyrazolo[1,5-a]pyrimidine-3-carboxamide] was tested, and the “Cisplatin Sensitization Assay” value was “+++ (Compounds with a Cisplatin sensitization value of <0.02 μM are marked with “+++.”)”.
For `CC(C)(C)NC(=O)C1CCN(c2c(F)cncc2NC(=O)c2c(N)nn3cc(F)cnc23)CC1` [I-G-19, 2-amino-N-(4-(4-(tert-butylcarbamoyl)piperidin-1-yl)-5-fluoropyridin-3-yl)-6-fluoropyrazolo[1,5-a]pyrimidine-3-carboxamide], the “Cisplatin Sensitization Assay” value was “++ (Compounds with a Cisplatin sensitization value >0.02 μM but <0.2 μM are marked with “++.”)”.
`N#CCc1cnc2c(C(=O)Nc3cnccc3N3CCCCC3)c(N)nn2c1` [I-N-84, 2-amino-6-(cyanomethyl)-N-(4-(piperidin-1-yl)pyridin-3-yl)pyrazolo[1,5-a]pyrimidine-3-carboxamide] was tested, and the “Cisplatin Sensitization Assay” value was “+++ (Compounds with a Cisplatin sensitization value of <0.02 μM are marked with “+++.”)”.
For `CN1CC(C(=O)N2CCN(c3c(F)cncc3NC(=O)c3c(N)nn4cc(F)cnc34)CC2)C1` [I-N-194], the “Cisplatin Sensitization Assay” value was “+++ (Compounds with a Cisplatin sensitization value of <0.02 μM are marked with “+++.”)”.
In the case of `CN1CCC(S(=O)(=O)N2CCN(c3c(F)cncc3NC(=O)c3c(N)nn4cc(F)cnc34)CC2)CC1` [I-N-175, 2-amino-6-fluoro-N-(5-fluoro-4-(4-((1-methylpiperidin-4-yl)sulfonyl)piperazin-1-yl)pyridin-3-yl)pyrazolo[1,5-a]pyrimidine-3-carboxamide], the “Cisplatin Sensitization Assay” value is reported as “+++ (Compounds with a Cisplatin sensitization value of <0.02 μM are marked with “+++.”)”.
`Nc1nn2cc(F)cnc2c1C(=O)Nc1cnccc1N1CCCC2(COC2)C1` [I-N-253, N-(4-(2-oxa-6-azaspiro[3.5]nonan-6-yl)pyridin-3-yl)-2-amino-6-fluoropyrazolo[1,5-a]pyrimidine-3-carboxamide] was tested, and the “Cisplatin Sensitization Assay” value was “+++ (Compounds with a Cisplatin sensitization value of <0.02 μM are marked with “+++.”)”.
For `Nc1nn2cc(F)cnc2c1C(=O)Nc1cnccc1N1CCC(S(=O)(=O)N2CCC2)CC1` [I-N-271, 2-amino-N-(4-(4-(azetidin-1-ylsulfonyl)piperidin-1-yl)pyridin-3-yl)-6-fluoropyrazolo[1,5-a]pyrimidine-3-carboxamide], the “Cisplatin Sensitization Assay” value was “+++ (Compounds with a Cisplatin sensitization value of <0.02 μM are marked with “+++.”)”.
With `CC1CN(c2ccncc2NC(=O)c2c(N)nn3cc(Cl)cnc23)CCN1C` (stereo not drawn) [I-N-54, 2-amino-6-chloro-N-(4-(3,4-dimethylpiperazin-1-yl)pyridin-3-yl)pyrazolo[1,5-a]pyrimidine-3-carboxamide] the “Cisplatin Sensitization Assay” value was “+++ (Compounds with a Cisplatin sensitization value of <0.02 μM are marked with “+++.”)”.
With `Cn1nccc1-c1ccncc1NC(=O)c1c(N)nn2cc(F)cnc12` [I-C-57, 2-amino-6-fluoro-N-(4-(1-methyl-1H-pyrazol-5-yl)pyridin-3-yl)pyrazolo[1,5-a]pyrimidine-3-carboxamide] the “Cisplatin Sensitization Assay” value was “+++ (Compounds with a Cisplatin sensitization value of <0.02 μM are marked with “+++.”)”.
For `CN1CCC(NC(=O)C2CCN(c3c(F)cncc3NC(=O)c3c(N)nn4cc(F)cnc34)CC2)CC1` [I-G-20, 2-amino-6-fluoro-N-(5-fluoro-4-(4-((1-methylpiperidin-4-yl)carbamoyl)piperidin-1-yl)pyridin-3-yl)pyrazolo[1,5-a]pyrimidine-3-carboxamide], the “Cisplatin Sensitization Assay” value was “+ (Compounds with a Cisplatin sensitization value >0.2 μM but <5 μM are marked with “+.”)”.
`CN1CCN(CC2CCN(c3c(F)cncc3NC(=O)c3c(N)nn4cc(F)cnc34)CC2)CC1=O` [I-N-171, 2-amino-6-fluoro-N-(5-fluoro-4-(4-((4-methyl-3-oxopiperazin-1-yl)methyl)piperidin-1-yl)pyridin-3-yl)pyrazolo[1,5-a]pyrimidine-3-carboxamide] was tested, and the “Cisplatin Sensitization Assay” value was “+++ (Compounds with a Cisplatin sensitization value of <0.02 μM are marked with “+++.”)”.
With `CN1CC2CN(C(=O)C3CCN(c4c(F)cncc4NC(=O)c4c(N)nn5cc(F)cnc45)CC3)CC2C1` (stereo not drawn) [I-G-18, 2-amino-6-fluoro-N-(5-fluoro-4-(4-(5-methyloctahydropyrrolo[3,4-c]pyrrole-2-carbonyl)piperidin-1-yl)pyridin-3-yl)pyrazolo[1,5-a]pyrimidine-3-carboxamide] the “Cisplatin Sensitization Assay” value was “+++ (Compounds with a Cisplatin sensitization value of <0.02 μM are marked with “+++.”)”.
With `CN1CCN(c2c(F)cncc2NC(=O)c2c(N)nn3cc(CC#N)cnc23)CC1` [I-N-80, 2-amino-6-(cyanomethyl)-N-(5-fluoro-4-(4-methylpiperazin-1-yl)pyridin-3-yl)pyrazolo[1,5-a]pyrimidine-3-carboxamide] the “Cisplatin Sensitization Assay” value was “++ (Compounds with a Cisplatin sensitization value >0.02 μM but <0.2 μM are marked with “++.”)”.
